# Results taken from patent publication US10485550B2, “Ophthalmic drug delivery device and methods of use” (priority 2012, dated 2019).
# “And” between values parts separate entries of the source, which are not always exact repeats. Equal values may be shown once.
# Tested on: mouse eye
# Test: Intraocular pressure (TonoLab) in mice after injection of ethacrynic acid, with or without healon, into the episcleral vein
# Assay type: in vivo
# Method: Basline intraocular pressures were measured in both eyes of the mouse using a TonoLab device. A piece of a latex glove was placed over the equator of the mouse eye. Initially, a glass microcannula was used to inject either (a) a solution of ethacrynic acid alone or (b) saline into the episcleral vein at the limbus of the right eye of each mouse. The solution or saline was injected until blanching was observed 360 degrees around the limbus. The piece of latex was then removed from the eye. Intraocular pressures were then measured daily and then weekly in both eyes of all mice. The ethacrynic acid injection alone produced its most profound effect at day 2; however, some effect was maintained until day 7. The results of the above protocol are provided in Table 1, and also shown in FIG. 4, where ethacrynic acid is noted as ECA (squares), saline control is BSS (triangles), and non-treated control is control (diamonds).
# Next, ethacrynic acid was combined with healon in a 3:1 ratio. Again, a glass microcannula was used to inject either the ethacrynic acid/healon solution or BSS solution as the control. The ethacrynic acid/healon solution produced its most profound effect at 2 weeks but lasted 3 weeks. The results are provided in Table 2 and also shown in FIG. 3, where ethacrynic acid/healon is designated with squares, BSS as diamonds, and non injected controls as triangles.
# [1] = ethacrynic acid injection alone, episcleral vein, mouse
compound,measurement,setting,value
"C=C(CC)C(=O)c1ccc(OCC(=O)O)c(Cl)c1Cl [ECA, [2,3-dichloro-4-(2-methylene-1-oxobutyl)phenoxy]acetic acid]",Reduction of intraocular pressure (IOP) versus control,FIG. 5,reduces intraocular pressure (IOP) greater than control
same,Animal status (mouse ECA6),"Table 1, ethacrynic acid alone, 1 wk",dead
same,"Intraocular pressure, OD, individual mouse","Table 2, ethacrynic acid combined with healon 3:1, episcleral vein injection, 1 day",14 and 13 (2×) and 9 (2×)
same,"Avg. intraocular pressure, OD","Table 2, ethacrynic acid combined with healon 3:1, episcleral vein injection, 1 day, group avg (0 hr base avg 16.6)",12.25
same,"Intraocular pressure, OD, individual mouse","Table 2, ethacrynic acid combined with healon 3:1, episcleral vein injection, 2 day",12 (2×) and 19 (2×) and 22 and 16
same,"Avg. intraocular pressure, OD","Table 2, ethacrynic acid combined with healon 3:1, episcleral vein injection, 2 day, group avg",16.8
same,"Intraocular pressure, OD, individual mouse","Table 2, ethacrynic acid combined with healon 3:1, episcleral vein injection, 5 day",13 and 8 and 17 and 14 and 16 and 10
same,"Avg. intraocular pressure, OD","Table 2, ethacrynic acid combined with healon 3:1, episcleral vein injection, 5 day, group avg",13.6
same,"Intraocular pressure, OD, individual mouse","Table 2, ethacrynic acid combined with healon 3:1, episcleral vein injection, 7 day",10 (3×) and 9 and 7 and 20
same,"Avg. intraocular pressure, OD","Table 2, ethacrynic acid combined with healon 3:1, episcleral vein injection, 7 day, group avg",11.2
same,"Intraocular pressure, OD, individual mouse","Table 2, ethacrynic acid combined with healon 3:1, episcleral vein injection, 14 day",16 and 12 and 14 and 18 (2×)
same,"Avg. intraocular pressure, OD","Table 2, ethacrynic acid combined with healon 3:1, episcleral vein injection, 14 day, group avg",15
same,"Intraocular pressure, OD, individual mouse","Table 2, ethacrynic acid combined with healon 3:1, episcleral vein injection, 21 day",16 and 7 and 14 (2×) and 8
same,"Avg. intraocular pressure, OD","Table 2, ethacrynic acid combined with healon 3:1, episcleral vein injection, 21 day, group avg",12.75
same,"Intraocular pressure, OD, individual mouse","Table 2, ethacrynic acid combined with healon 3:1, episcleral vein injection, 35 day",11 and 8 and 15 and 17 and 14
same,"Avg. intraocular pressure, OD","Table 2, ethacrynic acid combined with healon 3:1, episcleral vein injection, 35 day, group avg",12.75
same,"Intraocular pressure, OD, individual mouse","Table 2, ethacrynic acid combined with healon 3:1, episcleral vein injection, 42 day",15 and 12 (2×) and 8 and 11
same,"Avg. intraocular pressure, OD","Table 2, ethacrynic acid combined with healon 3:1, episcleral vein injection, 42 day, group avg",14.11
same,"Intraocular pressure, OD, individual mouse","Table 2, ethacrynic acid combined with healon 3:1, episcleral vein injection, 56 day",13 and 10 (2×) and 7 and 17
same,"Avg. intraocular pressure, OD","Table 2, ethacrynic acid combined with healon 3:1, episcleral vein injection, 56 day, group avg",13.47
same,"Intraocular pressure, OD, individual mouse","Table 2, ethacrynic acid combined with healon 3:1, episcleral vein injection, 64 day",16 and 12 and 9 and 15 and 14
same,"Avg. intraocular pressure, OD","Table 2, ethacrynic acid combined with healon 3:1, episcleral vein injection, 64 day, group avg",13.83
same,"Intraocular pressure, OD, individual mouse","Table 2, ethacrynic acid combined with healon 3:1, episcleral vein injection, 74 day (first 74 day column pair)",19 and 14 and 17 and 18
same,"Avg. intraocular pressure, OD","Table 2, ethacrynic acid combined with healon 3:1, episcleral vein injection, 74 day (first 74 day column pair), group avg",17
same,"Intraocular pressure, OD, individual mouse","Table 2, ethacrynic acid combined with healon 3:1, episcleral vein injection, 74 day (second 74 day column pair)",17 and 11 and 16 (2×)
same,"Avg. intraocular pressure, OD","Table 2, ethacrynic acid combined with healon 3:1, episcleral vein injection, 74 day (second 74 day column pair), group avg",19
same,Animal status (mouse ECA6),"Table 2, 14 day",dead
same,"Intraocular pressure, OD, individual mouse","ethacrynic acid alone, episcleral vein injection right eye, 1 wk",16 and 12 and 14 and 18
same,"Avg. intraocular pressure, OD","ethacrynic acid alone, episcleral vein injection right eye, 1 wk, group avg (0 hr base avg 16.6)",15
same,"Intraocular pressure, OD, individual mouse","ethacrynic acid alone, episcleral vein injection right eye, 1 day",14 and 13 (2×) and 9
same,"Avg. intraocular pressure, OD","ethacrynic acid alone, episcleral vein injection right eye, 1 day, group avg (0 hr base avg 16.6)",12.25
same,"Intraocular pressure, OD, individual mouse","ethacrynic acid alone, episcleral vein injection right eye, 2 day",12 (2×) and 19 (2×) and 22
same,"Avg. intraocular pressure, OD","ethacrynic acid alone, episcleral vein injection right eye, 2 day, group avg (0 hr base avg 16.6)",16.8
same,"Intraocular pressure, OD, individual mouse","ethacrynic acid alone, episcleral vein injection right eye, 5 day",13 and 8 and 17 and 14 and 16
same,"Avg. intraocular pressure, OD","ethacrynic acid alone, episcleral vein injection right eye, 5 day, group avg (0 hr base avg 16.6)",13.6
same,"Intraocular pressure, OD, individual mouse","ethacrynic acid alone, episcleral vein injection right eye, 6 day",10 (2×) and 9 and 7 and 20
same,"Avg. intraocular pressure, OD","ethacrynic acid alone, episcleral vein injection right eye, 6 day, group avg (0 hr base avg 16.6)",11.2
same,Effect on intraocular pressure maintained until,[1],7 days
same,Time of most profound effect on intraocular pressure,[1],2 days
